Source: patent US20080004272A1, “Compositions and methods for modulating gated ion channels” (PainCeptor Pharma Corporation, priority 2006, published 2008)

Experiments:
ASIC1a [1] = biological target: T1, ASIC1a (Homo sapiens, UniProt P78348); experiment: Calcium imaging of MES-induced calcium response (FLIPR); format: cell-based; set-up: host or cells: HEK293; conditions: ASIC1a expressing HEK293 cells, MES-induced calcium response; read-out: IC50 (FLIPR)
T1 sequence (P78348 1-528): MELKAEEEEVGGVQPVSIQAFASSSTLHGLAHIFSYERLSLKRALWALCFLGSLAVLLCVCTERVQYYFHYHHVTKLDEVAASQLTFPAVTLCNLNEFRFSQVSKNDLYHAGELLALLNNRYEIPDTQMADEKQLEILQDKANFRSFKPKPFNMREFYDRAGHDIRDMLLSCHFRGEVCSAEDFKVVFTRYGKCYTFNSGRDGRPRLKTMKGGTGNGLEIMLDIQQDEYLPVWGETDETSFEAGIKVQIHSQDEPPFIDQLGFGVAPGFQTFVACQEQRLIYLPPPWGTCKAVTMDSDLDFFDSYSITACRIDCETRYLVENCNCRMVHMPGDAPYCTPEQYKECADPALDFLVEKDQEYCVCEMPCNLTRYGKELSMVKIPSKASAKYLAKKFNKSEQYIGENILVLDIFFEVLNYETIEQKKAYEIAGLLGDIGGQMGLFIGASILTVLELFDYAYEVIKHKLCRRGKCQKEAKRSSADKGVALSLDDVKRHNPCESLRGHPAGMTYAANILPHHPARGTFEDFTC
Method: […] Confluency of cells should be 80-90% on day of plating. Cells are rinsed with 10 ml of PBS and cells are re-suspended by addition of culture medium and trituration with a 25 ml pipette.
The cells are seeded at a density of approximately 1×10^6 cells/ml (100 μl/well) in black-walled, clear bottom, 96-well plates pre-treated with 10 mg/l poly-D-lysin (75 μl/well for ≧30 min). Plated cells are allowed to proliferate for 24 h before loading with dye.
Fluo-4/AM (1 mg, Molecular Probes) is dissolved in 912 μl DMSO. The Fluo-4/AM stock solution (1 mM) is diluted with culture medium to a final concentration of 2 μM (loading solution).
The culture medium is aspirated from the wells, and 50 μl of the Fluo-4/AM loading solution is added to each well. The cells are incubated at 37° C. for 30 min.
Following the second wash, 100 μl modified Assay Buffer is added to each well and the fluorescence is measured in FLIPR™ or FlexStation™ (Molecular Devices, USA), or any other suitable equipment known to the skilled in the art.
Temperature: Room temperature (20-22° C.)
First addition: 50 μl test solution at a rate of 30 μl/sec and a starting height of […]
Second addition: 50 μl MES solution (20 mM, 5 mM final concentration) at a rate of 35 μl/sec and a starting height of 150 μl.
Reading intervals: pre-incubation−10 sec×7 and 3 sec×3 antagonist phase−3 sec×7 and 10 sec×12
Addition plates (compound test plate and MES plate) are placed on the right and left positions in the FLIPR tray, respectively. Cell plates are placed in the middle position and the ASIC1a program is effectuated. FLIPR will then take the appropriate measurements in accordance with the interval settings above. Fluorescence obtained after stimulation is corrected for the mean basal fluorescence (in modified Assay Buffer).
The MES-induced peak calcium response, in the presence of test substance, is expressed relatively to the MES response alone. Test substances that block the MES-induced calcium response are re-tested in triplicates.

ASIC1a [2] = biological target: T1, ASIC1a; experiment: Two-electrode voltage clamp in Xenopus laevis oocytes (Xo), acid-induced currents; format: cell-based; set-up: expressed in transfected cells; host or cells: Xenopus laevis oocytes (nuclear microinjection of expression vector such as pcDNA3); conditions: Xenopus oocytes; for inhibition at 50 µM: read-out: % inh. at 50 μM (Xo)
Method: Two-electrode voltage clamp electrophysiological assays in Xenopus laevis oocytes expressing gated ion channels are performed as follows:
Oocytes are surgically removed from adult Xenopus laevis and treated for 2 h at room temperature with 1 mg/ml type I collagenase (Sigma) in Barth's solution under mild agitation. Selected oocytes at stage IV-V are defolliculated manually before nuclear microinjection of 2.5-5 ng of a suitable expression vector, such as pcDNA3, comprising the nucleotide sequence encoding a gated ion channel subunit protein. In such an experiment, the oocytes express homomultimeric proton-gated ion channels on their surface. In an alternate experiment, one, two, three or more vectors comprising the coding sequences for distinct gated ion channel subunits are co-injected in the oocyte nuclei. In the latter case, oocytes express heteromultimeric proton-gated ion channels. For example, ASIC2a and/or ASIC3 subunits in pcDNA3 vector are co-injected at a 1:1 cDNA ratio. After 2-4 days of expression at 19° C. in Barth's solution containing […] gentamicin and 1.8 mM CaCl2, gated ion channels are activated by applying an acidic solution (pH<7) and currents are recorded in a two electrode voltage-clamp configuration, using an OC-725B amplifier (Warner Instruments). Currents are acquired and digitized at 500 Hz on an Apple Imac G3 computer with an A/D NB-MIO-16XL interface (National Instruments) and recorded traces are post-filtered at 100 Hz in Axograph (Axon Instruments) (Neher, E. and Sakmann, B. (1976) Nature 260:799-802). Once impaled with the microelectrodes, oocytes are continuously superfused at 10-12 ml/min with a modified Ringer's solution containing 97 mM NaCl, 2 mM KCl, 1.8 mM CaCl2, and 10 mM HEPES brought to pH 7.4 with NaOH (Control Ringer). Test Ringer solution is prepared by replacing HEPES with MES and adjusting the pH to the desired acidic value. Compounds of the present invention are prepared in both the Control and Test Ringer solutions and applied to oocytes at room temperature through a computer-controlled switching valve system. Osmolarity of all solutions is adjusted to 235 mOsm with choline chloride. Similarly, recordings can also be acquired in an automated multichannel oocytes system as the OpusExpress™ (Molecular Devices, Sunnyvale, USA).
FIGS. 1A and 2A illustrate the inhibitory effects of Compounds 203 and 206 on acid-induced activation of recombinant homomeric hASIC1a channels.

| Structure (SMILES) | IC50 (ASIC1a [1]) [µM] | inhibition at 50 µM (ASIC1a [2]) [%] | inhibition at 100 µM (ASIC1a [2]; 100 μM, read-out: % inh. at 100 μM (Xo)) [%] | IC50 (ASIC1a [2]; table value, read-out: IC50 (Xo)) [µM] |
| --- | --- | --- | --- | --- |
| CCOC(=O)C(=O)Nc1ccc(-c2ccccc2)c2c1CN(C)CC2 [Compound 162] | > 70 | < 25 |  |  |
| CCOC(=O)/C=N\c1ccc(-c2ccccc2)c2c1CN(C)CC2 [Compound 124] | > 70 | < 25 |  |  |
| CN1CCc2c(-c3ccccc3)ccc(NC(=O)OC(C)(C)C)c2C1 [Compound 129] | 50 to 70 | < 25 |  |  |
| CN1CCc2c(-c3ccccc3)cc(C(=O)O)c(N)c2C1 [Compound 141] | > 70 | < 25 |  |  |
| CCOC(=O)CNc1ccc(-c2ccccc2)c2c1CN(C(=O)OCC)CC2 [Compound 140] | > 70 | < 25 |  |  |
| CCOC(=O)C(=O)Nc1ccc(-c2ccccc2)c2c1CN(C(=O)OCC)CC2 [Compound 125] | > 70 | < 25 |  |  |
| CCOC(=O)N1CCc2c(-c3ccccc3)ccc(NCC(=O)O)c2C1 [Compound 138] | > 70 | < 25 |  |  |
| CC(C)(C)OC(=O)N1CCc2c(-c3ccccc3)ccc(C(N)=O)c2C1 [Compound 181] | > 70 | < 25 |  |  |
| CN1CCc2c(-c3ccccc3)cc3c(c2C1)NCC31OCCO1 [Compound 77] | > 70 | < 25 |  |  |
| CCOC(=O)CN(C(C)=O)c1ccc(-c2ccccc2)c2c1CN(C(=O)OCC)CC2 [Compound 139] | 50 to 70 | < 25 |  |  |
| CN1CCc2c(-c3ccccc3)ccc(NC(=O)CCC(=O)O)c2C1 [Compound 134] | > 70 | < 25 |  |  |
| [H]/N=C(\N)N/N=C1/C(=O)Nc2c1cc(-c1ccccc1)c1c2CN(C)CC1 [Compound 105] | 20 to 40 | 20 to 30 |  |  |
| CN1CCc2c(-c3ccccc3)ccc(Nc3ncccc3C(=O)O)c2C1 [Compound 150] | > 70 | < 25 |  |  |
| CN1CCc2c(-c3ccccc3)ccc(NCCO)c2C1 [Compound 143] | > 70 | < 25 |  |  |
| CN1CCc2c(-c3ccccc3)cc(C(N)=O)c(N)c2C1 [Compound 128] | > 70 | < 25 |  |  |
| CCOC(=O)N1CCc2c(Br)ccc([N+](=O)[O-])c2C1 [Compound 157] | > 70 |  | > 50 |  |
| COc1ccc(F)cc1-c1cc(/C(N)=N/O)c(N)c2c1CCN(C)C2 [Compound 208] |  | 20 to 40 |  |  |
| CC(C)(C)OC(=O)N1CCc2c(-c3ccccc3)ccc(NCC(=O)O)c2C1 [Compound 165] |  | 20 to 40 |  |  |
| CN1CCc2c(-c3ccccc3)cc(/C(N)=N/O)c(N)c2C1 [Compound 207] |  | > 50 |  |  |
| CCOC(=O)CNc1ccc(-c2ccccc2)c2c1CN(C)CC2 [Compound 204, (2-Methyl-5-phenyl-1,2,3,4-tetrahydro-isoquinolin-8-ylamino)-acetic acid ethyl ester] |  |  |  | > 50 |
| CN1CCc2c(-c3ccccc3)cc(C#N)c(Cl)c2C1 [Compound 176] |  | < 25 |  |  |
| CCN(CC)C(=O)c1cc(-c2cc(F)ccc2OC)cc(C)c1NC(=O)N(C)C [Compound 191, 4-(3,3-Dimethyl-ureido)-5′-fluoro-2′-methoxy-5-methyl-biphenyl-3-carboxylic acid diethylamide] |  | < 25 |  |  |
| CCOC(=O)CN(Cc1ccccc1)Cc1ccc(-c2ccccc2)c2c1CN(C(=O)OCC)CC2 [Compound 122] |  | 20 to 40 |  |  |
| COc1ccc(F)cc1-c1cc(C#N)c(NC(C)=O)c2c1CCN(C)C2 [Compound 195, N-[7-Cyano-5-(5-fluoro-2-methoxy-phenyl)-2-methyl-1,2,3,4-tetrahydro-isoquinolin-8-yl]-acetamide] |  | 25 to 40 |  |  |
| COc1ccc(F)cc1Oc1ccc([N+](=O)[O-])c2c[n+](C)ccc12 [Compound 11] |  | < 25 |  |  |

Second part, led by results:

| IC50 (ASIC1a [1]) [µM] | inhibition at 50 µM (ASIC1a [2]) [%] | inhibition at 100 µM (ASIC1a [2]; 100 μM, read-out: % inh. at 100 μM (Xo)) [%] | Structure (SMILES) | IC50 (ASIC1a [2]; table value, read-out: IC50 (Xo)) [µM] |
| --- | --- | --- | --- | --- |
| > 70 | < 25 |  | CN1CCc2c(-c3ccccc3)cc3c(O)cc(=O)[nH]c3c2C1 [Compound 94] |  |
| 20 to 40 | > 50 |  | CN1CCc2c(-c3ccccc3)cc3c(c2C1)NC(=O)/C3=N/N [Compound 102] |  |
| > 70 | < 25 |  | CCOC(=O)/C=C1/C(=O)Nc2c1cc(-c1ccccc1)c1c2CN(C)CC1 [Compound 92] |  |
| 20 to 30 | < 25 |  | COc1ccc(F)cc1-c1cc2c(c3c1CCN(C)C3)NC(=O)/C2=N\O[C@H]1O[C@@H](CO)[C@H](O)[C@@H](O)[C@@H]1O [Compound 20] |  |
| > 70 | 20 to 40 |  | CN1CCc2c(-c3ccccc3)cc3c(=O)[nH]c(=O)[nH]c3c2C1 [Compound 98] |  |
| > 70 | < 25 |  | Cc1nc2c3c(c(-c4ccccc4)cc2c(=O)o1)CCN(C)C3 [Compound 97] |  |
|  | < 25 |  | COc1ccc(F)cc1-c1cc(C#N)c(N(S(C)(=O)=O)S(C)(=O)=O)c2c1CCN(C)C2 [Compound 196, N-[7-Cyano-5-(5-fluoro-2-methoxy-phenyl)-2-methyl-1,2,3,4-tetrahydro-isoquinolin-8-yl]-dimethanesulfonamide] |  |
|  | < 25 |  | CCOC(=O)CC(=O)NN=C1C(=O)Nc2c1cc(-c1ccccc1)c1c2CN(C)CC1 [Compound 110] |  |
|  | < 25 |  | CN1CCc2c(-c3ccccc3)cc3[nH]c(=O)c(=O)[nH]c3c2C1 [Compound 100] |  |
|  | 20 to 40 |  | COCCOCN1C(=O)/C(=N/O)c2cc(-c3ccccc3)c3c(c21)CN(C)CC3 [Compound 66] |  |
|  | < 25 |  | CCOC(C)O/N=C1/C(=O)Nc2c1cc(-c1cc(F)ccc1OC)c1c2CN(C)CC1 (centres unmarked) [Compound 67] |  |
|  | 30 to 50 |  | CCOC(C)O/N=C1/C(=O)Nc2c1cc(-c1ccccc1)c1c2CN(C)CC1 (centres unmarked) [Compound 63] |  |
|  | < 25 |  | CN1CCc2c(-c3ccccc3)cc3c(c2C1)NC(=O)C3=NNCCO [Compound 109] |  |
|  | < 25 |  | COc1ccc(F)cc1-c1cc(C#N)c(N2C(=O)CCC2=O)c2c1CCN(C)C2 [Compound 211] |  |
|  | < 25 |  | CC(=O)NN=C1C(=O)Nc2c1cc(-c1ccccc1)c1c2CN(C)CC1 [Compound 112] |  |
